Experimental data reported in PubChem BioAssay (NCI).
Values joined by “and” are separate entries in the source; they are usually repeats but may differ in a detail not shown here. Equal entries are not always repeated.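 Each compound was tested at five concentrations against cells in 96-well plates for 48 hours. GI50 = concentration required for 50% inhibition of growth. TGI denotes the concentration required for complete inhibition of growth.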

Columns and labels:
Test in all cases: NCI anticancer screen, dose series, 48 h
[1] = system: SF-539 CNS
[2] = system: 786-0 renal
[3] = system: SNB-75 CNS
[4] = system: NCI-H226 lung
[5] = system: SR leukemia
[6] = system: HCC-2998 colon
[7] = system: ACHN renal
[8] = system: COLO 205 colon
[9] = system: SK-OV-3 ovarian
[10] = system: HCT-116 colon

Structure (SMILES) | GI50 [1] | TGI [1] | GI50 [2] | TGI [2] | GI50 [3] | TGI [3] | GI50 [4] | TGI [4] | GI50 [5] | TGI [5] | GI50 [6] | TGI [6] | GI50 [7] | TGI [7] | GI50 [8] | TGI [8] | GI50 [9] | TGI [9] | GI50 [10] | TGI [10]
CCOC(=O)/C(=C/c1c(-c2ccccc2)[nH]c2ccccc12)C(=O)c1ccc(Cl)cc1 | 4.23 µM | > 100 µM | 3.75 µM | > 100 µM | 4.87 µM | > 100 µM | 5.6 µM | > 100 µM | 3.14 µM | 6.42 µM | 3.94 µM | > 100 µM | 3.62 µM | > 100 µM | 1.98 µM | 4.36 µM | 4.38 µM | > 100 µM | 2.76 µM | > 100 µM
COc1cc(C2c3cc4c(cc3[C@@H](OCCN)[C@H]3COC(=O)C23)OCO4)cc(OC)c1O (stereo not given in full) |  | 0.345 µM |  | 0.437 µM |  | 2.43 µM |  | 0.933 µM |  | 0.0693 µM |  | 2.1 µM |  | 2.01 µM |  | 6.51 µM |  | 1.48 µM |  | 4.89 µM
C=C1C(=O)C23C(O)C1CCC2C12CO[C@]3(O)[C@@H](O)C1C(C)(C)CCC2O (stereo not given in full) |  | 28.2 µM |  | 25.1 µM |  | 29.3 µM |  | 34.9 µM |  | > 100 µM |  | 30.4 µM |  | 27.2 µM |  | 7.87 µM |  | 34.5 µM |  | 15.5 µM
C/C(=N\NC(=S)Nc1ccccc1)c1ccccn1 | 0.581 µM | 7.24 µM | 0.277 µM | 1.99 µM | 1.86 µM | 11 µM | 0.217 µM | 2.13 µM | 0.0703 µM | 11.3 µM | 0.924 µM | 3.12 µM | 0.0335 µM | 3.75 µM | 0.0119 µM | 1.48 µM | 0.51 µM | 2.22 µM | < 0.01 µM | 1.17 µM
CCN(CC)c1ccc(/C=C/C2=[N+](C)c3ccccc3C2(C)C)cc1 | 0.776 µM | 13.9 µM | 0.653 µM | 13.6 µM | 0.34 µM | 17.3 µM | 0.992 µM | 18.7 µM | > 20.9 µM | > 100 µM | 0.547 µM | 18.6 µM | 1.48 µM | 14.6 µM | 0.161 µM | 0.392 µM | 0.275 µM | 2.79 µM | 0.181 µM | 22.1 µM
NCCCNCCCNc1nc2ccccc2c2[nH]c3ccccc3c12 | 0.156 µM | 1.55 µM | 0.0975 µM | 1.56 µM | 0.224 µM | 1.29 µM | 0.125 µM | 1.6 µM | 0.0059 µM | 1.17 µM | 0.109 µM | 0.733 µM | 0.112 µM | 2.82 µM | 0.182 µM | 2.12 µM | 0.743 µM and 0.322 µM | 4.14 µM and 3.42 µM | 0.091 µM | 1.87 µM
COC(=O)Oc1nn(C(=O)OC)c(=O)c2ccccc12 (tested in a mixture with another compound) |  | > 100 µM |  | > 100 µM |  | > 100 µM |  | > 100 µM |  | > 100 µM |  | > 100 µM |  | > 100 µM |  | > 100 µM |  | > 100 µM |  | > 100 µM
c1ccc(COc2ccc(Nc3ncnc4ccc(-c5ccco5)cc34)cc2)cc1 | 8.83 µM | > 25 µM | 4.91 µM | 12.9 µM | 6.82 µM | > 18.9 µM | 5.73 µM | > 21.5 µM | 6.7 µM | > 25 µM | 10.6 µM | > 25 µM | 6.75 µM | > 25 µM | 7.14 µM | 17.7 µM | 0.994 µM | 8.16 µM | 4.93 µM | 12.4 µM
